{"source": "patent US20090053245A1", "about": "“Pharmacokinetics and Efficacy of Anti-Angiogenic Drugs and Drugs Treating Diseases of the Blood” (priority 2007, published 2009)", "key": {"[1]": {"details": "in vivo; cited from earlier work"}, "[2]": {"details": "non-transplant patients; cited from earlier work"}, "CYP3a4": {"target": "T1, CYP3a4 (Homo sapiens, UniProt P08684)", "T1 construct": "purchased Invitrogen (Carlsbad, Calif.) P2856", "T1 sequence (P08684 2-503 limits assumed)": "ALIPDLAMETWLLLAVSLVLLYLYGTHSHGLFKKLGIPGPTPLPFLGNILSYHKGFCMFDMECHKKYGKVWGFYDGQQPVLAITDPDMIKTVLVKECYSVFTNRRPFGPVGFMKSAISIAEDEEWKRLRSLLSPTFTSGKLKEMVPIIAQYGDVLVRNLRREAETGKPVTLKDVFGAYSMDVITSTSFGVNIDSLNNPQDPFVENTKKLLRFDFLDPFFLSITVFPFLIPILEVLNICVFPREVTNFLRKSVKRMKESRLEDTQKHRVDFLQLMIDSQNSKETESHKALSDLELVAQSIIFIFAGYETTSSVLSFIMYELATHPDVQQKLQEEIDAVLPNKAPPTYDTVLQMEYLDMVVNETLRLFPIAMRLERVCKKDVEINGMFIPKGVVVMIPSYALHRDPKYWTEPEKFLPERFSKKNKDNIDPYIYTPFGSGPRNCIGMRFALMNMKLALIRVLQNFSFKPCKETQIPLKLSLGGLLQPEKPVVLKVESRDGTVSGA", "assay": "Fluorescence-based CYP3a4 assay (Invitrogen VIVID) with or without FKBP", "type": "in vitro ADME"}, "[3]": {"target": "T2, vitamin K epoxide reductase (Mus musculus, UniProt Q9CRC0)", "T2 construct": "clotting time doubles after only about 8 hours for warfarin-SLF dosed mice; from tissue; host or cells: live mice dosed by gavage; clotting time measured on their blood", "T2 sequence (Q9CRC0 1-161)": "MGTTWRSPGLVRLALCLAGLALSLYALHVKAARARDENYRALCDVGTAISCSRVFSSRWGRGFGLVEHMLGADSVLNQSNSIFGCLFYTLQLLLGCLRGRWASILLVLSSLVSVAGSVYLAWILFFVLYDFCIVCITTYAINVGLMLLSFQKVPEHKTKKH", "assay": "Time course of anticoagulant effect (Helena Thromboplastic Reagent MI clotting test)", "type": "in vivo", "details": "mice, 1.5 mg/kg by gavage in 0.5% methylcellulose", "description": "Five mice per arm (fifteen animals total) were used for the test. […] The dose was 1.5 mg/kg, administered in 0.5% methylcellulose by gavage. The Helena Thromboplastic Reagent MI test (Helena Laboratories, Beaumont, Tex.) was employed to determine the duration of clotting."}}}
{"smiles": "C=CC[C@@H]1/C=C(\\C)C[C@H](C)C[C@H](OC)[C@H]2O[C@@](O)(C(=O)C(=O)N3CCCC[C@H]3C(=O)O[C@H](/C(C)=C/[C@@H]3CC[C@@H](O)[C@H](OC)C3)[C@H](C)[C@@H](O)CC1=O)[C@H](C)C[C@@H]2OC", "note": "[FK506]", "values": [{"measurement": "distribution in the blood", "setting": "[1]", "value": "72-98%"}, {"measurement": "half-life", "setting": "[2]", "value": 21, "unit": "h"}]}
{"smiles": "COc1cc(/C=C/C(=O)CC(=O)/C=C/c2ccc(O)c(OC)c2)ccc1O", "note": "[curcumin]", "values": [{"measurement": "protection from degradation by CYP3a4", "setting": "CYP3a4; in the presence of human FKBP (recombinant bacterially-expressed protein)", "value": "unable to protect"}, {"measurement": "substrate for the enzyme CYP3a4", "setting": "CYP3a4; no FKBP added", "value": "good substrates"}]}
{"smiles": "CC(=O)CC(c1ccccc1)c1c(O)c2ccccc2oc1=O", "note": "(centres unmarked) [warfarin]", "values": [{"measurement": "time after which clotting time doubles", "setting": "[3]", "value": 18, "unit": "h"}]}
